Data as given in ChEMBL document CHEMBL1141728, “Transtorine, a new quinoline alkaloid from Ephedra transitoria” (1998).
≈ marks a conversion by molar mass, not a printed value. Calls of active or inactive are those of the source. The calls are words filed in the database; no cut-off is given here.

Key:
[1] = system: Proteus mirabilis; assay: Antibacterial activity against Proteus mirabilis by disk diffusion method
[2] = system: Shigella flexneri; assay: Antibacterial activity against Shigella flexneri by disk diffusion method; format: functional
[3] = system: Pseudomonas aeruginosa; assay: Antibacterial activity against Pseudomonas aeruginosa by disk diffusion method; format: functional
[4] = system: Bacillus subtilis; assay: Antibacterial activity against Bacillus subtilis by disk diffusion method
[5] = system: Staphylococcus aureus; assay: Antibacterial activity against Staphylococcus aureus by disk diffusion method; format: functional
[6] = system: Enterobacter cloacae; assay: Antibacterial activity against Enterobacter cloacae by disk diffusion method; format: functional

Structure (SMILES) | MIC [1] [µg/mL] | MIC [2] [µg/mL] | MIC [3] [µg/mL] | MIC [4] [µg/mL] | Activity [2] | MIC [5] [µg/mL] | MIC [6] [µg/mL]
O=C(O)c1cn(C2CC2)c2cc(N3CCNCC3)c(F)cc2c1=O [CIPROFLOXACIN] | 20 (≈ 60.4 µM) | 20 (≈ 60.4 µM) | 20 (≈ 60.4 µM) | 20 (≈ 60.4 µM) | – | – | –
O=C(O)c1cc(=O)c2ccccc2[nH]1 [TRANSTORINE] | – | – | 500 (≈ 2640 µM) | – | inactive | 380 (≈ 2010 µM) | 450 (≈ 2380 µM)
